{
  "source": "patent US10954405B2",
  "about": "“Water-based diacetylene ink, hydrochromic polydiacetylene paper prepared using the ink, and use thereof” (INDUSTRY-UNIVERSITY COOPERATION FOUNDATION HANYANG …, priority 2015, dated 2021)",
  "experiment": "Solubility of DA-1 in water dependent upon temperature (FIG. 6C)",
  "assay_type": "physicochemical",
  "settings": "sample of DA-1 and water in a plastic bag on a paper printed with \"A\", temperature elevated; clearer at 25° C. and 30° C.",
  "procedure": "FIGS. 6A-6C are a set of photographs illustrating the temperature-dependent reaction of the moisture test paper manufactured according to the moisture test paper manufacture example and solubility of DA-1 in water dependent upon temperature.\nReferring to FIG. 6C when a sample including DA-1 and water was put into a plastic bag, the plastic bag was put on a paper on which “A” was printed, and temperature was elevated, the lower “A” began to be observed from about 20° C. and became clearer as temperature was elevated to 25° C. and 30° C.",
  "data": [
    {"smiles": "CCCCCCCCCCCCC#CC#CCCCCCCCCC(=O)NCCCn1cc[n+](CC#N)c1", "note": "[DA-1]", "values": [
      {"measurement": "temperature from which DA-1 dissolves in water (printed \"A\" under the sample began to be observed)", "value": "about 20 °C"}
    ]}
  ]
}
